# Values joined by “and” are separate entries in the source; they are usually repeats but may differ in a detail not shown here. Equal values may be shown once. “Also recorded” adds a separate entry of the source.
# Columns and labels:
# HuR-RNA binding = HuR-RNA binding (Homo sapiens, UniProt Q15717); assay: Plasmonic nanoparticle LSPR assay of HuR-RNA binding; settings: gold nanoparticle arrays, target RNA SEQ ID NO 7, recombinant HuR protein
# Protocol: As shown schematically in FIG. 9A-B, a pattern for either microfluidic channels or a spot plate is first made on the substrate using photolithography. Next, the hole mask procedure is carried out on top of the patterned photoresist to make the desired nanoparticle array. Briefly, this procedure involves spin coating a layer of poly(methylmethacrylate) (PMMA) followed by a layer of poly(diallyldimethylammonium chloride) (PDDA). Next, polystyrene spheres of a desired size are drop-coated onto the top of the polymer layers and a layer of 5 nm of gold is deposited over the whole assembly. After removal of the polystyrene spheres by tape-stripping, the masks are subjected to oxygen plasma etching to generate holes the same size as the polystyrene spheres. Metals are then deposited into these holes and in the last step, both the PMMA/PDDA polymer mask and the photoresist are removed using acetone, to create nanoparticle arrays in a desired pattern on the substrate. […] The PDMS layer was used to create the channels for the microfluidic devices and to prevent solution migration from spot to spot in the spot plates.
# Next a target RNA strand containing a DNA hybridizing region, which binds via base pair matching with the ssDNA on the nanoparticle, and a hairpin loop containing a HuR target binding site. […] Last, the HuR protein is added and binds to its target site within the RNA hairpin loop. […]
# NFAT = assay: NFAT-luciferase reporter assay in NRVMs; type: cell-based, rat; settings: for effect on basal NFAT activity: inhibitor at its IC50, without PE; for NFAT reporter activity, fold vs. vehicle control: 24 hours
# Protocol: NRVMs were transfected with 75 ng per well (in a 96-well plate) of NFAT-luciferase reporter plasmid acquired from AddGene (51941) (B. J. Wilkins et al., Calcineurin/NFAT coupling participates in pathological, but not physiological, cardiac hypertrophy, Circ. Res. 94 (2004) 110-118. doi:10.1161/01.RES.0000109415.17511.18, the entire disclosure of which is incorporated herein by this citation). 48 hours after transfection, cells were treated with 10 μM PE for 24 hours to induce NFAT reporter activity. To quantify luciferase reporter expression, cells were rinsed with sterile PBS and then lysed with 50 μL Cell Lysis Buffer (Promega) for 5 min at room temperature, followed by addition of 100 μL luciferase assay reagent (Promega); luminescence was read immediately on the BioTek Cytation 3 image reader. HuR inhibitors were previously identified by Wu et. al. (X. Wu et al., Identification and Validation of Novel Small Molecule Disruptors of HuR-mRNA Interaction, ACS Chem. Biol. (2015) 150317154550000-9. doi:10.1021/cb500851u. the entire disclosure of which is incorporated herein by this citation), and used here as described.
# [1] = system: pressure overload (aortic constriction) mouse model of heart failure; assay: Aortic constriction (TAC) pressure overload mouse model of cardiac hypertrophy and heart failure; type: in vivo; settings: TAC mice
# Protocol: FIG. 7A-C. KH-3 reduces ventricular dilation and improves ejection fraction in a pressure overload (aortic constriction) mouse model of heart failure. Mice (N=10) were subjected to aortic constriction (TAC) to induce cardiac hypertrophy and heart failure. After week 4, they were randomized to receive either KH-3 (50 mg/kg 3×/week) or Vehicle (5 mice to each group). KH-3 is a small molecule inhibitor of HuR-mRNA interaction that is available from.
# FIG. 8A-C. KH-3 reduces ventricular dilation and improves ejection fraction in a pressure overload (aortic constriction) mouse model of heart failure.
# HuR = HuR nucleo-cytoplasmic translocation by immunostaining in NRVMs; type: cell-based, rat; settings: for HuR cytoplasmic translocation, fluorescent intensity ratio: agonist alone (PE 10 μM or AngII 100 nM), within 15 minutes (printed 15 hr)
# Description: All antibodies were made up in 0.6% BSA in PBS. For wheat germ agglutinin (WGA) staining, a Texas Red-X conjugate was used per manufacturer's instructions (ThermoFisher). […]
# RCAN1 = assay: Expression of the NFAT target gene RCAN1 by qRT-PCR in NRVMs; type: cell-based, rat; settings: PE treated
# Protocol: (§1) RNA was isolated using a Macherey-Nagel NucleoSpin RNA kit and cDNA was synthesized using a BioScript All-in-One cDNA Synthesis SuperMix (Biotool). Samples were run on Stratagene Mx3005P (Agilent Technologies) using SYBR Green qPCR Master Mix (Biotool) to assess levels of GAPDH, ANF (atrial natriuretic factor), and RCAN1 (Regulator of Calcineurin 1). Results were analyzed using the ΔΔCt method (K. J. Livak, T. D. Schmittgen, Analysis of relative gene expression data using real-time quantitative PCR and the 2(-Delta Delta C(T)) Method, Methods. 25 (2001) 402-408. doi:10.1006/meth.2001.1262, the entire disclosure of which is incorporated herein by this citation). Primers are as listed: […]
# [2] = system: neonatal rat ventricular myocytes (NRVMs); assay: Hypertrophic cell growth of NRVMs, cell area by WGA staining; type: cell-based; settings: 10 μM PE for 24 hr, vs vehicle treated control cells
# Description: Neonatal rat ventricular myocytes (NRVMs) were isolated using collagenase digestion and adhesion differential from fibroblasts as described ([…]. Moore-Morris, S. Lange, Isolation and culture of neonatal mouse cardiomyocytes, J Vis Exp. (2013) e50154-e50154. doi:10.3791/50154, the entire disclosure of which is incorporated herein by this citation). Briefly, Sprague Dawley neonatal rats (1-2 days old) (Taconic) were decapitated and the hearts were isolated. Following removal of the atria, the ventricles were cut into small pieces and digested first in 0.05% trypsin/EDTA (Corning) overnight, then in collagenase II (Gibco) for 30 minutes. Cells were then spun at 100×g followed by a 40 minute pre-plating process on non-treated plates to allow the fibroblasts to adhere. The non-adherent NRVMs were then transferred to cell culture-treated dishes in MEM alpha media (Gibco) with 10% FBS. […] All slides were imaged with the BioTek Cytation 3 image reader and quantitative assessment of HuR translocation was measured as the ratio of cytoplasmic to nuclear fluorescent intensity (adjusted for mean background fluorescence and integrated area) using ImageJ.
# ANF = ANF (hypertrophic marker gene) expression by qRT-PCR in NRVMs; type: cell-based, rat; settings: vehicle+PE, 24 hr
# Protocol: as §1
# PKC = PKC substrate phosphorylation in NRVMs; type: cell-based, rat; settings: data not shown
# [3] = inhibitor at its IC50 simultaneously with PE
# [4] = 50 mg/kg 3×/week from week 4, vs Vehicle
# Chain of HuR-RNA binding (Q15717 whole entry): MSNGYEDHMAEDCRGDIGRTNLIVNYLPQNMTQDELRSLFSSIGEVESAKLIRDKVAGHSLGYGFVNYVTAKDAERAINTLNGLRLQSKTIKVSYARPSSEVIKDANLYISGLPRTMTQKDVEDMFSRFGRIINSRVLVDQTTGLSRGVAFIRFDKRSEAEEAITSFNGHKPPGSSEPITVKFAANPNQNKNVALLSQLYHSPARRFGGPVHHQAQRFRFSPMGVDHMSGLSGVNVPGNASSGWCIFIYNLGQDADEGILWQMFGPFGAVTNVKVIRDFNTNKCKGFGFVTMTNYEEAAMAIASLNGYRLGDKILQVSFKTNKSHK
compound,measurement,setting,value
CCN(CC)C(=O)CC(c1cc(OC)c(OC)c(OC)c1)c1c(OC)cc(OC)c2c(-c3ccccc3)cc(=O)oc12 (centres unmarked) [CMLD-1],leftward LSPR shift (disruption of HuR-RNA binding),HuR-RNA binding,10 nm
same,effect on basal NFAT activity,NFAT,no significant effect
same,"NFAT reporter activity, fold vs. vehicle control",NFAT; [3],1.19±0.30 fold
COc1ccc(C(CC(=O)N2CCCC2)c2c(OC)cc(OC)c3c(-c4ccccc4)cc(=O)oc23)cc1 (centres unmarked) [CMLD-2],effect on basal NFAT activity,NFAT,no significant effect
same,"NFAT reporter activity, fold vs. vehicle control",NFAT; [3],1.30±0.14 fold
CC(C)(C)c1ccc(S(=O)(=O)Nc2ccc3sc(/C=C/C(=O)NO)cc3c2)cc1 [KH-3],cardiac hypertrophy as heart weight to body weight,[1],strong trend toward a reduction in cardiac hypertrophy
same,cardiac hypertrophy as heart weight to tibia length ratio,[1],strong trend toward a reduction in cardiac hypertrophy
same,left ventricle (LV) diameter,[1]; [4],blunts further increases
same,left ventricle end diastolic volume (LV-EDV),[1]; [4],preventing further increases
same,left ventricle end systolic volume (LV-ESV),[1]; [4],preventing further increases
same,cardiac function as measured by ejection fraction,[1]; pressure overload-induced hypertrophy,strong trend toward improving cardiac function
"CNC[C@H](O)c1cccc(O)c1 [PE, phenylephrine]","NFAT reporter activity, fold vs. vehicle control",NFAT; PE alone 10 μM,5.02±0.98 fold
same,"HuR translocation, ratio of cytoplasmic to total cell fluorescent intensity","HuR; 24 hr PE, vehicle control 0.71±0.04",1.82±0.08
same,"HuR cytoplasmic translocation, fluorescent intensity ratio",HuR; vehicle control 0.71±0.04,1.05±0.06
same,RCAN1 expression fold-induction,RCAN1,4.43±0.77 fold-induction
same,fold increase in cell area/size,[2],1.29±0.08 fold and 1.39±0.07 fold
same,ANF expression fold-induction,ANF,5.4±1.4 fold-induction
CCCCCCCCCCCCCC(=O)O[C@@H]1[C@@H](C)[C@@]2(O)[C@@H](C=C(CO)C[C@]3(O)C(=O)C(C)=C[C@@H]23)[C@@H]2C(C)(C)[C@]12OC(C)=O [PMA],HuR translocation after direct PKC activation,HuR; 2 μM,lack of HuR translocation
C[S+]([O-])c1ccc(-c2nc(-c3ccncc3)c(-c3ccc(F)cc3)[nH]2)cc1 (centres unmarked) [SB203580],"HuR translocation, fluorescent intensity ratio",HuR; p38 inhibitor (10 μM) + AngII,0.76±0.07
same,"HuR translocation, fluorescent intensity ratio","HuR; p38 inhibitor (10 μM) + PE, PE alone 1.05±0.06",0.68±0.08
COc1ccc2c(c[n+](C)c3c4cc5c(cc4ccc23)OCO5)c1OC [chelerythrine],PKC substrate phosphorylation,PKC,a reduction of PKC substrate phosphorylation
same,effect on PE/AngII-mediated HuR translocation,HuR; PKC inhibitor 10 μM,had no effect on HuR translocation; also recorded: shows a trend to enhance HuR translocation
"angiotensin II [AngII, angiotensin receptor AT1 agonist]","HuR cytoplasmic translocation, fluorescent intensity ratio",HuR; vehicle control 0.71±0.04,1.06±0.04
